From patent publication US9605026B2, “Hydrogen-bond surrogate peptides and peptidomimetics for p53 reactivation” (New York University, priority 2013, dated 2017)

How the values were obtained:
Type in all cases: cell-based, human
[1] = test system: p53; assay: Western blot of total and acetylated[K382] p53 in UMSCC47 cells; settings: 24 hours; for acetylated p53 levels / p53 accumulation (total p53 level): UMSCC47, 10 μM
Description: (§1) FIG. 5A is an schematic illustration showing that CH1 has two distinct target sites. HIF1-α/p300 structures were used as guides to design helix mimetics that target site A and site B on the CH1 domain of p300. […] CH1iA (SEQ ID NO: 7) and CH1iB (SEQ ID NO: 8) were designed to mimic two helices from the C-terminal domain of HIF-1α. The peptides were locked into the helical conformation by the hydrogen bond surrogate method. FIG. 5C is a graph of p53 activity. UMSCC47 (left) and UMSCC74A (right) cells were co-transfected with a p53 Firefly luciferase reporter plasmid and a control Renilla luciferase plasmid. After 24 hours, cells were treated with control (vehicle), CH1iA (10 μM), or CH1iB (10 μM) for 24 hours. Firefly luciferase activity was normalized to Renilla luciferase activity to control for transfection efficiency. Data is normalized to control and presented as mean±SEM. *P<0.05, n=3. FIG. 5D is a western blot showing total and acetylated p53 levels. UMSCC47 (left) and UMSCC74A (right) cells were treated with control (vehicle), CH1iA (10 μM), or CH1iB (10 μM) for 24 hours. Cell lysates were immunoblotted with anti-p53 or anti-acetylated[K382]-p53 antibody. FIG. 5E is a pair of graphs of p300, p53, p21, miR-34a, and miR-200c expression. UMSCC47 (top panel) and UMSCC74A (bottom panel) cells were treated with control (vehicle), CH1iA (10 μM), or CH1iB (10 μM) for 24 hours. mRNA expression was determined using qPCR with validated TaqMan assays. Data is normalized to control cells and presented as mean±SEM. *P<0.01, control vs. CH1iB, n=3. FIG. 5F is a western blot showing HPV16 E6-p300 association. UMSCC47 cells were treated with control (vehicle), CH1iA (10 μM), or CH1iB (10 μM) for 24 hours. Cell lysates were extracted, immunoprecipitated with anti-p300 antibody, and immunoblotted with anti-E6 antibody. Cell lysates were immunoblotted with anti-E6 or anti-p300 antibody for input control. FIG. 5G is a set of graphs of cell proliferation. UMSCC47 (top left panel), UMSCC74A (top right panel), and IMR90 (human normal fibroblasts) (bottom panel) cells were treated with control (vehicle), CH1iA (10 μM), CH1iB (10 μM), cis-platinum (10 μM), CH1iA (10 μM) and cis-platinum (10 μM), or CH1iB (10 μM) and cis-platinum (10 μM) for 24, 48, or 72 hours. Data is normalized to Day 0 and presented as mean±SEM. *P<0.01, control vs. CH1iB or cis-platinum, **P<0.01 CH1iB or cis-platinum vs. CH1iB and cis-platinum, n=6.
FIG. 6A is a western blot showing total and acetylated p53 levels. UMSCC47 cells were treated with control (vehicle), CH1iB (10 μM), cis-platinum (10 μM), or CH1iB (10 μM) and cis-platinum (10 μM) for 24 hours. Cell lysates were immunoblotted with anti-p53 or anti-acetylated[K382]-p53 antibody. FIG. 6B is a graph of p53 transcriptional activity. UMSCC47 cells were co-transfected with a p53 Firefly luciferase reporter plasmid and a control Renilla luciferase plasmid. After 24 hours, cells were treated with control (vehicle), CH1iB (10 μM), cis-platinum (10 μM), or CH1iB (10 μM) and cis-platinum (10 μM) for 24 hours. Firefly luciferase activity was normalized to Renilla luciferase activity to control for transfection efficiency. Data is normalized to control and presented as mean±SEM. *P<0.01, control vs. CH1iB, cis-platinum or CH1iB+cis-platinum, **P<0.01 CH1iB or cis-platinum vs. CH1iB+cis-platinum, n=5. FIG. 6C is a graph of p300, p53, p21, miR-34a, and miR-200c expression. UMSCC47 cells were treated with control (vehicle), CH1iB (10 μM), cis-platinum (10 μM), or CH1iB (10 μM) and cis-platinum (10 μM) for 24 hours. mRNA expression was determined using qPCR with validated TaqMan assays. Data is normalized to control cells and presented as mean±SEM. *P<0.01, control vs. CH1iB, cis-platinum or CH1iB+cis-platinum, **P<0.01 CH1iB or cis-platinum vs. CH1iB+cis-platinum, n=3. FIG. 6D is a pair of graphs of apoptosis. […]

[2] = test system: p53; assay: p53 transcriptional activity (Cignal p53 luciferase reporter) in UMSCC47 cells; settings: 24 hours
Description: as §1
FIG. 6A is a western blot showing total and acetylated p53 levels. […] UMSCC47 cells were treated with control (vehicle), CH1iB (10 μM), cis-platinum (10 μM), or CH1iB (10 μM) and cis-platinum (10 μM) for 24 hours. mRNA expression was determined using qPCR with validated TaqMan assays. […]

[3] = test system: UMSCC47 cells; assay: Cell proliferation (MTT) in UMSCC47 cells; settings: for cell proliferation, single-agent: UMSCC47, 10 μM, 24-72 hours
Description: as §1
FIG. 7A is a graph of p53 transcriptional activity. UMSCC47 cells were co-transfected with a p53 Firefly luciferase reporter plasmid and a control Renilla luciferase plasmid. After 24 hours, cells were treated with control (vehicle) or CH1iB-mut (10 μM) for 24 hours. Firefly luciferase activity was normalized to Renilla luciferase activity to control for transfection efficiency. Data is presented as mean±SEM. *P<0.05, n=5. FIG. 7B is a graph of cell proliferation. UMSCC47 cells were treated with control (vehicle), CH1iB-mut (10 μM), cis-platinum (10 μM), or CH1iB-mut (10 μM) and cis-platinum (10 μM) for 24 or 48 hours. Data is normalized to Day 0 and presented as mean±SEM. *P<0.01, control or CH1iB-mut vs. cis-platinum or cis-platinum+CH1iB-mut, n=6.
Cell proliferation was assessed using the MTT reagent (Roche Molecular Biochemicals, Nutley, N.J.) to detect metabolic active cells. Absorbance was measured at 570 nm in the Spectra Max 190 ELISA reader (Molecular Devices, Sunnyvale, Calif.) after overnight incubation. […]

[4] = UMSCC47, CH1iB 10 μM with cis-platinum 10 μM

Row | Substance | acetylated p53 levels [1] | p53 accumulation (total p53 level) [1] | effect of cis-platinum on p53 accumulation [1, 4] | effect of cis-platinum on p53 acetylation [1, 4] | p53 activity increase ([2]; UMSCC47 (HPV-positive), 10 μM, vs control (vehicle)) | effect of cis-platinum on p53 activity [2, 4] | effect on anti-proliferative efficacy of cis-platinum (combination) ([3]; UMSCC47, 10 μM with cis-platinum 10 μM) | cell proliferation, single-agent [3] | p53 activity, effect in words ([2]; UMSCC47 (HPV-positive), 10 μM)
1 | XELA*RALDQ-NH2 (ELXRALDQ; HBS: 4-pentenoic acid, N-allylalanine; C-terminal amide; CH1iB) [X 4-pentenoic acid, A* N-allylalanine] | enhanced | enhanced | potentiated | potentiated | 71% | potentiated | potentiated | inhibited | 
2 | XTAA*DCEYNAR (TAXDCEYNAR; HBS: 4-pentenoic acid, N-allylalanine; CH1iA) [X 4-pentenoic acid, A* N-allylalanine, reference compound] | no effect | no effect |  |  |  |  |  | inactive | no effect
